Experimental data from US20080009418A1, “Selective Inhibitors” (Alchemia LTD., priority 2004, published 2008).

What was measured:
Human μ-opioid (MOP) = target: T1, Human μ-opioid (MOP) (Homo sapiens, UniProt P35372); assay: Radioligand binding, human μ-opioid (MOP) membranes, FlashPlate, [3H]-Naloxone; settings: compound at 10 μM, [3H]-Naloxone
T1 construct: purchased Perkin Elmer Biosignal
Summary of the method: (§1)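 Cloned human receptor membranes were coated onto FlashPlate wells and incubated with radioligand and compound (added from a 0.5 mM DMSO daughter plate) for 1 hour at room temperature in the dark. Scintillation counting gave percent inhibition, with DMSO defining total and reference ligand defining non-specific binding.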

[1] = target: T2, Human melanin-concentrating hormone (MCH1) (Homo sapiens, UniProt Q99705); assay: Radioligand binding, human melanin-concentrating hormone MCH1 membranes, FlashPlate, [125I]-S36057; settings: compound at 10 μM
T2 construct: purchased Perkin Elmer Biosignal
T2 sequence (Q99705 whole entry): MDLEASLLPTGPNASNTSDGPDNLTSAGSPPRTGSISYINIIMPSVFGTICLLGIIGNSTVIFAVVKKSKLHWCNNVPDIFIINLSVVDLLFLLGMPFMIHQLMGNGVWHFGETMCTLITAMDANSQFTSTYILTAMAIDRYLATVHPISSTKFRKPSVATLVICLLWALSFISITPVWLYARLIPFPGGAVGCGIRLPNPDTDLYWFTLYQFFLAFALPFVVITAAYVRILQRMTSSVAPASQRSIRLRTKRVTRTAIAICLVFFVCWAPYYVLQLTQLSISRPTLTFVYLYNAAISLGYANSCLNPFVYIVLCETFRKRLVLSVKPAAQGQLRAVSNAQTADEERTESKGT
Summary of the method: as §1

Human opioid (ORL1) = target: T3, Human opioid (ORL1) (Homo sapiens, UniProt P41146); assay: Radioligand binding, human opioid ORL1 membranes, FlashPlate, [125I]-Nociceptin; settings: compound at 10 μM, [125I]-Nociceptin
T3 construct: purchased Perkin Elmer Biosignal
T3 sequence (P41146 whole entry): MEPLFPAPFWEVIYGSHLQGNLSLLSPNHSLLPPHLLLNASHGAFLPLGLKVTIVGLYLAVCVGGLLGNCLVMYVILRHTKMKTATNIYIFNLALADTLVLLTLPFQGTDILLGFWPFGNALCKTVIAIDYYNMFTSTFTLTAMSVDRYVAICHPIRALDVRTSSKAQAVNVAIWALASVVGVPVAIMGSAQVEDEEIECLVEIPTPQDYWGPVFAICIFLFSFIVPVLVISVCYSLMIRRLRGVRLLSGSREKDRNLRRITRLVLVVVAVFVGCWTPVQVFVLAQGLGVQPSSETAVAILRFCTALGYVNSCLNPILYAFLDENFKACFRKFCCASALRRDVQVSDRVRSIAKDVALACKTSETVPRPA
Summary of the method: as §1

Human Melanocortin (MC4) = target: T4, Human Melanocortin (MC4) (Homo sapiens, UniProt P32245); assay: Radioligand binding, human melanocortin MC4 membranes, FlashPlate, [125I]-NDP-αMSH; settings: compound at 10 μM, [125I]-NDP-αMSH
T4 construct: purchased Perkin Elmer Biosignal
T4 sequence (P32245 whole entry): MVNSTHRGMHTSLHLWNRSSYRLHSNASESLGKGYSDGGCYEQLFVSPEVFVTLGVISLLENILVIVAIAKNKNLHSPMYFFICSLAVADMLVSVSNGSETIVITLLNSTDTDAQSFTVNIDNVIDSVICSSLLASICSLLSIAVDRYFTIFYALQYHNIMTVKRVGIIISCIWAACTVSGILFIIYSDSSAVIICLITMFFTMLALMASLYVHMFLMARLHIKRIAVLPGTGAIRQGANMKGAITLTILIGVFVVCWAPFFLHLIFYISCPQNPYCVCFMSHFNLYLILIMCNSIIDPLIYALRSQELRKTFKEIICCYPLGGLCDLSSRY
Summary of the method: as §1

Human κ-Opioid (KOP) = target: T5, Human κ-Opioid (KOP) (Homo sapiens, UniProt P41145); assay: Radioligand binding, human κ-opioid (KOP) membranes, filtration, [3H]-Diprenorphine; settings: compound at 10 μM, [3H]-Diprenorphine
T5 construct: purchased Perkin Elmer Biosignal
T5 sequence (P41145 whole entry): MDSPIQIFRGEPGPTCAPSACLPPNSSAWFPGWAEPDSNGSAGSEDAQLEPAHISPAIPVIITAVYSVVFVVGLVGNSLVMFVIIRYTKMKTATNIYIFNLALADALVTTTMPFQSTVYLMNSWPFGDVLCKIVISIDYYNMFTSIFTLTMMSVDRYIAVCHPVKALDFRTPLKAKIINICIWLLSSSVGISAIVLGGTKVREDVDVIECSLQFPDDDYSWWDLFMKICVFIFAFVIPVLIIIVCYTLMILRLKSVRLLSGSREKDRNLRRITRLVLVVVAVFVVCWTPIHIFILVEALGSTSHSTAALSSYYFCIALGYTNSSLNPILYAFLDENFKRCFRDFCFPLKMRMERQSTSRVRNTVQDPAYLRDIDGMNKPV
Summary of the method: (§2)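 Percent inhibition of radioligand binding measured on recombinant human membranes: NK1 with [125I]-Substance P, KOP with [3H]-Diprenorphine. Incubation 1 h at room temperature, then harvest onto 0.3% PEI-soaked filters, cold Tris-HCl pH 7.4 washes and scintillation counting; non-specific binding from reference ligand wells.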

Human melanocortin (MC5) = target: T6, Human melanocortin (MC5) (Homo sapiens, UniProt P33032); assay: Radioligand binding, human melanocortin MC5 membranes, FlashPlate, [125I]-NDP-αMSH; settings: compound at 10 μM, [125I]-NDP-αMSH
T6 construct: purchased Perkin Elmer Biosignal
T6 sequence (P33032 whole entry): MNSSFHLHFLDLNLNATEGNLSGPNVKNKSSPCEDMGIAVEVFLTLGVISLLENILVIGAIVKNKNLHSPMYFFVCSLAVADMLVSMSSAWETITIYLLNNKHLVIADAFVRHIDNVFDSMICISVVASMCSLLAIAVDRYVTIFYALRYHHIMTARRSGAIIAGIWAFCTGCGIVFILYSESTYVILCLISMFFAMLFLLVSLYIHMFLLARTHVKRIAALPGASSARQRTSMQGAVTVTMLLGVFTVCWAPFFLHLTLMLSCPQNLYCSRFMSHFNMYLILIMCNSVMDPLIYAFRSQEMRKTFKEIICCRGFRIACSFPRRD
Summary of the method: as §1

Human δ-opioid (DOP) = target: T7, Human δ-opioid (DOP) (Homo sapiens, UniProt P41143); assay: Radioligand binding, human δ-opioid (DOP) membranes, FlashPlate, [3H]-Bremazocine; settings: compound at 10 μM, [3H]-Bremazocine
T7 construct: purchased Perkin Elmer Biosignal
T7 sequence (P41143 whole entry): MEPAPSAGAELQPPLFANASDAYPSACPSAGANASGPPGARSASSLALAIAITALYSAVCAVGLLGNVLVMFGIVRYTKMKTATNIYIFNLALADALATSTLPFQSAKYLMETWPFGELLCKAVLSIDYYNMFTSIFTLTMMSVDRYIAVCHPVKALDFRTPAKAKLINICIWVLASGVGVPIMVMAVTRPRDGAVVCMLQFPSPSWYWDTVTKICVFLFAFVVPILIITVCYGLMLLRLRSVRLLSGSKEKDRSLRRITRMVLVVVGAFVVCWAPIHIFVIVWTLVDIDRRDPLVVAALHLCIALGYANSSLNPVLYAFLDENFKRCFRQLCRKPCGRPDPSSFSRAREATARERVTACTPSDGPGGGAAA
Summary of the method: as §1

Human Melanocortin (MC3) = target: T8, Human Melanocortin (MC3) (Homo sapiens, UniProt P41968); assay: Radioligand binding, human melanocortin MC3 membranes, FlashPlate, [125I]-NDP-αMSH; settings: compound at 10 μM, [125I]-NDP-αMSH
T8 construct: purchased Perkin Elmer Biosignal
T8 sequence (P41968 whole entry): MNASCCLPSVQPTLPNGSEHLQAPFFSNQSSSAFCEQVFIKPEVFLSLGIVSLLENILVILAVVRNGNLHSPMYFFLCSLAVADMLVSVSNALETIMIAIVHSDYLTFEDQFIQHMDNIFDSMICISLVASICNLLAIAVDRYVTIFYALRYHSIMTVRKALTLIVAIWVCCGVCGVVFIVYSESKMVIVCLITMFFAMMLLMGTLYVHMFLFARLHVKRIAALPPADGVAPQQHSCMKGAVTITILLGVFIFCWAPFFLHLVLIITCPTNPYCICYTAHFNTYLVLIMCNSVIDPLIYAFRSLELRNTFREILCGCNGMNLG
Summary of the method: as §1

Human neurokinin (NK1) = target: T9, Human neurokinin (NK1) (Homo sapiens, UniProt P25103); assay: Radioligand binding, human neurokinin NK1 membranes, filtration, [125I]-Substance P; settings: compound at 10 μM, [125I]-Substance P
T9 construct: purchased Perkin Elmer Biosignal
T9 sequence (P25103 whole entry): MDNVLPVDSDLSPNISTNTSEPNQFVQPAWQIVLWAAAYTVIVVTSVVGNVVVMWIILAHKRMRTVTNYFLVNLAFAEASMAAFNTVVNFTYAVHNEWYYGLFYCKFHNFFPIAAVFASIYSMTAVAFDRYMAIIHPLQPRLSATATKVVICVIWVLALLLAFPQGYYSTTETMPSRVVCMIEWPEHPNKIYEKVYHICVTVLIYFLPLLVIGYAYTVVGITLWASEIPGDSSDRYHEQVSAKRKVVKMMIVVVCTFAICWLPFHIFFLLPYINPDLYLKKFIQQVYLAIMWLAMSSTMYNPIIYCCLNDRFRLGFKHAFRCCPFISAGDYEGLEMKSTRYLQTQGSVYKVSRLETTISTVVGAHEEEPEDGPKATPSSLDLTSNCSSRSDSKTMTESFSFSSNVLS
Summary of the method: as §2

[2] = target: T10, Human neuropeptide Y (NPY-Y1) (Homo sapiens, UniProt P25929); assay: Radioligand binding, human neuropeptide Y NPY-Y1 membranes, FlashPlate, [125I]-PYY; settings: compound at 10 μM, [125I]-PYY
T10 construct: purchased Perkin Elmer Biosignal
T10 sequence (P25929 1-384): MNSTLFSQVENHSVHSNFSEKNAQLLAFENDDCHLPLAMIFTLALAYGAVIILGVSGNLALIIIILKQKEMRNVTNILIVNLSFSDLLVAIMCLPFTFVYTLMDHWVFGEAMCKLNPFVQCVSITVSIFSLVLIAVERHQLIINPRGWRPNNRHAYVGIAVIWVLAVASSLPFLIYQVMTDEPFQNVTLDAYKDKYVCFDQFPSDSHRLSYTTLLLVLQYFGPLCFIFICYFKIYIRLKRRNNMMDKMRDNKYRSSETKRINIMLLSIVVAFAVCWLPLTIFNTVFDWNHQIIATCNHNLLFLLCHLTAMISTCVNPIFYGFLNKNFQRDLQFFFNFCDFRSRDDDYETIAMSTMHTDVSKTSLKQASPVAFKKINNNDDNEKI
Summary of the method: as §1

Mouse urotensin (mUR2) = target: T11, Mouse urotensin (mUR2) (Mus musculus, UniProt Q8VIH9); assay: Radioligand binding, mouse urotensin mUR2 membranes, FlashPlate, [125I]-Urotensin II; settings: compound at 10 μM, [125I]-Urotensin II
T11 construct: purchased Perkin Elmer Biosignal
T11 sequence (Q8VIH9 1-385): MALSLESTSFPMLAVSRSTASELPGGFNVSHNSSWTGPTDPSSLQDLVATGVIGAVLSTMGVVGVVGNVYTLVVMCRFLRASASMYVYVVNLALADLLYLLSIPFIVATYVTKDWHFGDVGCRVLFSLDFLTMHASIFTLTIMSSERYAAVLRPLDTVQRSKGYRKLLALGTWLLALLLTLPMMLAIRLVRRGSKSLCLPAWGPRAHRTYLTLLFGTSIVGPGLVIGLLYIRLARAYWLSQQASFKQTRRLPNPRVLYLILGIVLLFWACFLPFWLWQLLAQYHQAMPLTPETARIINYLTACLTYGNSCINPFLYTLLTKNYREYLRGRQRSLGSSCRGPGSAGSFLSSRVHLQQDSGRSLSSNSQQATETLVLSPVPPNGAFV
Summary of the method: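 Cloned mouse urotensin (mUR2) receptor membranes from Perkin Elmer Biosignal were immobilized in FlashPlate microplates using a proprietary coating. Each well got 19.5 μl buffer, then 0.5 μl of DMSO, reference ligand, or compound. Adding 5 μl of [125I]-Urotensin II, diluted to 5× final concentration in binding buffer, started binding. Plates were sealed with TopSeal-A and incubated 1 hour at room temperature in the dark. Wells were counted for 30 seconds each on a TopCount after a 60-second delay, and percentage inhibition was calculated.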

T1 sequence (P35372 whole entry): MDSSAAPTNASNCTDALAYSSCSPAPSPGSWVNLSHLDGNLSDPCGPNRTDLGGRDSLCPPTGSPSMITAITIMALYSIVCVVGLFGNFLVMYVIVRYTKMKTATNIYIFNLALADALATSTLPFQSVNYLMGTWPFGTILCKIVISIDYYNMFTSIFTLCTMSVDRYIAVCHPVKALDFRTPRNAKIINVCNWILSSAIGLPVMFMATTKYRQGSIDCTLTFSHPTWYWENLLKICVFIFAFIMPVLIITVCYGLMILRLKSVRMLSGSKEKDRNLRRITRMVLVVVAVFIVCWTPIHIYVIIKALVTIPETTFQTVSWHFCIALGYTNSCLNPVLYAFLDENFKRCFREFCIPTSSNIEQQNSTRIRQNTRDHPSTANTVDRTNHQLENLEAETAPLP

Compound: NCCC(=O)NC1C(OCc2ccc(Cl)cc2)OC(COCc2ccc3ccccc3c2)C(O)C1OCc1ccc(Cl)cc1 (single isomer, unassigned) [compound 471]
- A7: inhibition of radioligand binding (Human μ-opioid (MOP); human MOP membranes): − (“−” indicates less than 50% inhibition at 10 μM)
- A6: inhibition of radioligand binding ([1]; [125I]-S36057, human MCH1 membranes, 10 µM): − (“−” indicates less than 50% inhibition at 10 μM)
- A10: inhibition of radioligand binding (Human opioid (ORL1); human ORL1 membranes): − (“−” indicates less than 50% inhibition at 10 μM)
- A4: inhibition of radioligand binding (Human Melanocortin (MC4); human MC4 membranes, 10 µM): − (“−” indicates less than 50% inhibition at 10 μM)
- A2: inhibition of radioligand binding (Human κ-Opioid (KOP); human KOP membranes): − (“−” indicates less than 50% inhibition at 10 μM)
- A5: inhibition of radioligand binding (Human melanocortin (MC5); human MC5 membranes): + (“+” indicates greater than 50% inhibition at 10 μM)
- A1: inhibition of radioligand binding (Human δ-opioid (DOP); human DOP membranes): − (“−” indicates less than 50% inhibition at 10 μM)
- A3: inhibition of radioligand binding (Human Melanocortin (MC3); human MC3 membranes): + (“+” indicates greater than 50% inhibition at 10 μM)
- A8: inhibition of radioligand binding (Human neurokinin (NK1); human NK1 membranes): + (“+” indicates greater than 50% inhibition at 10 μM)
- A9: inhibition of radioligand binding ([2]; human NPY-Y1 membranes): − (“−” indicates less than 50% inhibition at 10 μM)
- A11: inhibition of radioligand binding (Mouse urotensin (mUR2); mouse mUR2 membranes): − (“−” indicates less than 50% inhibition at 10 μM)

Compound: CSC1OC(COCc2ccc3ccccc3c2)C(O)C(OCc2ccccc2)C1NC(=O)CCN (stereo not shown) [compound 261]
- A7: inhibition of radioligand binding (Human μ-opioid (MOP); FlashPlate): − (“−” indicates less than 50% inhibition at 10 μM)
- A6: inhibition of radioligand binding ([1]; [125I]-S36057, FlashPlate): − (“−” indicates less than 50% inhibition at 10 μM)
- A10: inhibition of radioligand binding (Human opioid (ORL1); FlashPlate): − (“−” indicates less than 50% inhibition at 10 μM)
- A4: inhibition of radioligand binding (Human Melanocortin (MC4); FlashPlate): − (“−” indicates less than 50% inhibition at 10 μM)
- A2: inhibition of radioligand binding (Human κ-Opioid (KOP); filtration): − (“−” indicates less than 50% inhibition at 10 μM)
- A5: inhibition of radioligand binding (Human melanocortin (MC5); FlashPlate): + (“+” indicates greater than 50% inhibition at 10 μM)
- A1: inhibition of radioligand binding (Human δ-opioid (DOP); FlashPlate): − (“−” indicates less than 50% inhibition at 10 μM)
- A3: inhibition of radioligand binding (Human Melanocortin (MC3); FlashPlate): − (“−” indicates less than 50% inhibition at 10 μM)
- A8: inhibition of radioligand binding (Human neurokinin (NK1); filtration): − (“−” indicates less than 50% inhibition at 10 μM)
- A9: inhibition of radioligand binding ([2]; FlashPlate): − (“−” indicates less than 50% inhibition at 10 μM)
- A11: inhibition of radioligand binding (Mouse urotensin (mUR2); FlashPlate): − (“−” indicates less than 50% inhibition at 10 μM)

Compound: NCCC(=O)NC1C(OCc2ccc3ccccc3c2)OC(COCc2ccccc2)C(O)C1OCc1ccc2ccccc2c1 (stereo not shown) [compound 385]
- A7: inhibition of radioligand binding (Human μ-opioid (MOP); human MOP membranes): − (“−” indicates less than 50% inhibition at 10 μM)
- A6: inhibition of radioligand binding ([1]; [125I]-S36057, human MCH1 membranes): + (“+” indicates greater than 50% inhibition at 10 μM)
- A10: inhibition of radioligand binding (Human opioid (ORL1); human ORL1 membranes): − (“−” indicates less than 50% inhibition at 10 μM)
- A4: inhibition of radioligand binding (Human Melanocortin (MC4); human MC4 membranes): + (“+” indicates greater than 50% inhibition at 10 μM)
- A2: inhibition of radioligand binding (Human κ-Opioid (KOP); human KOP membranes): − (“−” indicates less than 50% inhibition at 10 μM)
- A5: inhibition of radioligand binding (Human melanocortin (MC5); human MC5 membranes): + (“+” indicates greater than 50% inhibition at 10 μM)
- A1: inhibition of radioligand binding (Human δ-opioid (DOP); human DOP membranes): − (“−” indicates less than 50% inhibition at 10 μM)
- A3: inhibition of radioligand binding (Human Melanocortin (MC3); human MC3 membranes): + (“+” indicates greater than 50% inhibition at 10 μM)
- A8: inhibition of radioligand binding (Human neurokinin (NK1); human NK1 membranes): + (“+” indicates greater than 50% inhibition at 10 μM)
- A9: inhibition of radioligand binding ([2]; human NPY-Y1 membranes): − (“−” indicates less than 50% inhibition at 10 μM)
- A11: inhibition of radioligand binding (Mouse urotensin (mUR2); mouse mUR2 membranes): − (“−” indicates less than 50% inhibition at 10 μM)

Compound: CO[C@H]1[C@H](O)[C@@H](COCc2ccc(-c3ccccc3)cc2)OC(OCc2cccc(O)c2)[C@@H]1NC(=O)CCNC(=N)N (stereo partly shown) [compound 163]
- A7 radioligand binding, percentage inhibition (Human μ-opioid (MOP)): − (“−” indicates less than 50% inhibition at 10 μM)
- A6 radioligand binding, percentage inhibition ([1]; [125I]-S36057): − (“−” indicates less than 50% inhibition at 10 μM)
- A10 radioligand binding, percentage inhibition (Human opioid (ORL1)): − (“−” indicates less than 50% inhibition at 10 μM)
- A4 radioligand binding, percentage inhibition (Human Melanocortin (MC4)): + (“+” indicates greater than 50% inhibition at 10 μM)
- A2 radioligand binding, percentage inhibition (Human κ-Opioid (KOP)): − (“−” indicates less than 50% inhibition at 10 μM)
- A5 radioligand binding, percentage inhibition (Human melanocortin (MC5)): + (“+” indicates greater than 50% inhibition at 10 μM)
- A1 radioligand binding, percentage inhibition (Human δ-opioid (DOP)): − (“−” indicates less than 50% inhibition at 10 μM)
- A3 radioligand binding, percentage inhibition (Human Melanocortin (MC3)): + (“+” indicates greater than 50% inhibition at 10 μM)
- A8 radioligand binding, percentage inhibition (Human neurokinin (NK1)): + (“+” indicates greater than 50% inhibition at 10 μM)
- A9 radioligand binding, percentage inhibition [2]: − (“−” indicates less than 50% inhibition at 10 μM)
- A11 radioligand binding, percentage inhibition (Mouse urotensin (mUR2)): − (“−” indicates less than 50% inhibition at 10 μM)

Compound: NCCCC(=O)NC1C(OCc2ccccc2)OC(COCc2ccccc2)C(O)C1OCc1ccc(Cl)cc1 (stereo not shown) [compound 373]
- A7: inhibition of radioligand binding, human μ-opioid (MOP) (Human μ-opioid (MOP)): − (“−” indicates less than 50% inhibition at 10 μM)
- A6: inhibition of radioligand binding, human melanin-concentrating hormone (MCH1) ([1]; [125I]-S36057): − (“−” indicates less than 50% inhibition at 10 μM)
- A10: inhibition of radioligand binding, human opioid (ORL1) (Human opioid (ORL1)): − (“−” indicates less than 50% inhibition at 10 μM)
- A4: inhibition of radioligand binding, human melanocortin (MC4) (Human Melanocortin (MC4)): + (“+” indicates greater than 50% inhibition at 10 μM)
- A2: inhibition of radioligand binding, human κ-opioid (KOP) (Human κ-Opioid (KOP)): − (“−” indicates less than 50% inhibition at 10 μM)
- A5: inhibition of radioligand binding, human melanocortin (MC5) (Human melanocortin (MC5)): + (“+” indicates greater than 50% inhibition at 10 μM)
- A1: inhibition of radioligand binding, human δ-opioid (DOP) (Human δ-opioid (DOP)): − (“−” indicates less than 50% inhibition at 10 μM)
- A3: inhibition of radioligand binding, human melanocortin (MC3) (Human Melanocortin (MC3)): − (“−” indicates less than 50% inhibition at 10 μM)
- A8: inhibition of radioligand binding, human neurokinin (NK1) (Human neurokinin (NK1)): + (“+” indicates greater than 50% inhibition at 10 μM)
- A9: inhibition of radioligand binding, human neuropeptide Y (NPY-Y1) [2]: − (“−” indicates less than 50% inhibition at 10 μM)
- A11: inhibition of radioligand binding, mouse urotensin (mUR2) (Mouse urotensin (mUR2)): − (“−” indicates less than 50% inhibition at 10 μM)
